Converted amounts (≈) assume the structure as drawn. Where two headings read alike, the source gives them in different places.
Assays:
Type in all cases: cell-based
[1] = system: ten randomly selected isolates of T. tonsurans; experiment: Susceptibility of ten T. tonsurans isolates, broth microdilution NCCLS M38-P; conditions: for MIC: Trichophyton tonsurans
Description: (§1) Isolates were tested using the method described in the National Committee for Clinical Laboratory Standards (NCCLS) document M38-P for filamentous fungi, with dermatophyte specific modifications described by Fernández-Torres et al, Current topics in Medical Mycology, 14-19 Feb. 1999.
(§2) Five dermatophyte isolates were, namely; T. rubrum, T. mentagrophytes, T. tonsurans, M. canis and M. gypseum, all of which produce lipases and some, phospholipase. These isolates were tested by the broth microdilution method according to NCCLS document M38-P, for activity against selected antifungal agents. In addition, ten randomly selected isolates of T. tonsurans were also tested. All isolates were maintained on SDA at 28° C. Candida parapsilosis (ATCC 20019) was used as the reference control is organism.
(§3) The microdilution plates used were a single lot of RPMI 1640 basal medium (JRH bioScience Inc. Lenexa, Kans., USA) with L-glutamine and without sodium bicarbonate, buffered to pH 7.0, at 25° C., with 0.165 M (MOPS) morpholinepropanesulfonic acid (Sigma).
(§4) Powdered drugs were dissolved in 100% dimethyl sulfoxide (DMSO), at concentrations 100 times higher than the final test concentration. All compounds were prepared in 100% (DMSO). For ITRA and TRB, two-fold drug dilutions were prepared in 100% DMSO at 100 times the final concentration, followed by further dilution 1:50 in RPMI medium, to yield 2× the final strength required for the test.
(§5) Fungal cultures were subcultured onto Potato Dextrose Agar and grown at 28° C. for 7-10 days. Fungal suspensions were covered with 5 ml of distilled water, and then colonies were scraped off with cotton tipped swabs. The resulting mixture of conidia and hyphae elements was withdrawn, transferred to a sterile tube and then vortexed with glass beads. After the particles settled, the upper homogeneous suspension was collected and its density adjusted by a densitometer to a 0.5 McFarland standard at the wavelength of 530 nm (80-85% transmittance). These stock suspensions were then diluted 1:50 with RPMI medium to obtain final working inoculum concentration ranging from 0.3×10^4 to 9×10^4 CFU/ml. Inoculum quantification was performed by plating 100 μl of the 1:1000 dilution of the adjusted inoculum on SDA plates, incubated at 28° C., and after 7 days of incubation, the colonies were counted.
(§6) Testing was based on NCCLS M38-P document for testing filamentous moulds. Testing was carried out in sterile 96-well flat bottomed microtitre plate. Columns 1 and 3 to 12 were filled with 100 μl of RPMI medium, leaving column 2 unfilled. Columns 1, 2 and 3 were filled with 100 μl of 2× drug concentration. Serial dilutions were then made by transferring 100 μl from column 3 to each column up to column 11, and 100 μl from column 11 was discarded. Column 12 served as drug free growth control. Finally, 100 μl of inoculum suspension was added to all wells except column 1, which acted as sterility control (Columns 1 and 12 served as sterility and growth control respectively). Plates were incubated at 28° C. for 7 days, and read at 3 days and 7 days of incubation. All testing was performed in duplicate, on three separate occasions.
(§7) Growth in microtitre trays were read by visual inspection by using an illuminated-reversed mirror. Growth in each well was compared with the “growth control” drug free well. The MIC end point for all the drugs was chosen to be the first well with 100% growth inhibition (i.e. the lowest drug concentration inhibiting growth).

M. canis = experiment: Susceptibility of dermatophytes, broth microdilution NCCLS M38-P; conditions: for MIC: Microsporum canis
Description: as §1, §2, §3, §4, §5, §6, §7

M. gypseum = experiment: as above; conditions: for MIC: Nannizzia gypsea
Description: as §1, §2, §3, §4, §5, §6, §7

T. mentagrophytes = experiment: as above; conditions: 100% growth inhibition, 28° C.; for MIC: Trichophyton mentagrophytes
Description: as §1, §2, §3, §4, §5, §6, §7

T. rubrum = experiment: as above; conditions: for MIC: Trichophyton rubrum
Description: as §1, §2, §3, §4, §5, §6, §7

T. tonsurans = experiment: as above; conditions: for MIC: Trichophyton tonsurans
Description: as §1, §2, §3, §4, §5, §6, §7

[2] = T. tonsurans 1, read-out: MIC GM
[3] = T. tonsurans 2, read-out: MIC GM
[4] = T. tonsurans 2, read-out: MIC Mean
[5] = T. tonsurans 4, read-out: MIC Mean
[6] = T. tonsurans 5, read-out: MIC GM
[7] = T. tonsurans 5, read-out: MIC Mean
[8] = T. tonsurans 6, read-out: MIC GM
[9] = T. tonsurans 6, read-out: MIC Mean
[10] = T. tonsurans 7, read-out: MIC GM
[11] = T. tonsurans 7, read-out: MIC Mean
[12] = T. tonsurans 8, read-out: MIC GM
[13] = T. tonsurans 8, read-out: MIC Mean
[14] = T. tonsurans 9, read-out: MIC GM
[15] = T. tonsurans 9, read-out: MIC Mean
[16] = T. tonsurans 10, read-out: MIC Mean
[17] = T.tonsurans 3, read-out: MIC GM
[18] = T.tonsurans 3, read-out: MIC Mean
[19] = read-out: MIC Mean, T. tonsurans 1
[20] = 100% growth inhibition, 28° C., read-out: MIC GM, M. canis
[21] = 100% growth inhibition, 28° C., read-out: MIC Mean, M. canis
[22] = 100% growth inhibition, 28° C., read-out: MIC GM, M. gypseum
[23] = 100% growth inhibition, 28° C., read-out: MIC Mean, M. gypseum
[24] = read-out: MIC GM, T. mentagrophyte
[25] = read-out: MIC Mean, T. mentagrophyte
[26] = 100% growth inhibition, 28° C., read-out: MIC GM, T. rubrum
[27] = 100% growth inhibition, 28° C., read-out: MIC Mean, T. rubrum
[28] = 100% growth inhibition, 28° C., read-out: MIC GM, T. tonsurans
[29] = 100% growth inhibition, 28° C., read-out: MIC Mean, T. tonsurans

CCC(C)n1ncn(-c2ccc(N3CCN(c4ccc(OCC5COC(Cn6cncn6)(c6ccc(Cl)cc6Cl)O5)cc4)CC3)cc2)c1=O (centres unmarked) [Itraconazole]
MIC Range ([1]; T. tonsurans 1): 0.03 to 0.125 µg/mL | MIC Range ([1]; T. tonsurans 2): 0.125 to 2.0 µg/mL | MIC Range ([1]; T. tonsurans 4): 0.5 µg/mL (≈ 0.709 µM) | MIC Range ([1]; T. tonsurans 5): 0.25 to 0.5 µg/mL | MIC Range ([1]; T. tonsurans 6): 0.25 to 2.0 µg/mL | MIC Range ([1]; T. tonsurans 7): 0.5 to 1.0 µg/mL | MIC Range ([1]; T. tonsurans 8): 0.25 to 2.0 µg/mL | MIC Range ([1]; T. tonsurans 9): 0.125 to 1.0 µg/mL | MIC Range ([1]; T. tonsurans 10): 0.25 to 1.0 µg/mL | MIC Range ([1]; T.tonsurans 3): 0.06 to 0.5 µg/mL | MIC [1, 2]: 0.12 µg/mL (≈ 0.17 µM) | MIC [1, 3]: 0.397 µg/mL (≈ 0.563 µM) | MIC [1, 4]: 0.604 µg/mL (≈ 0.856 µM) | MIC ([1]; T. tonsurans 4, read-out: MIC GM): 0.5 µg/mL (≈ 0.709 µM) | MIC [1, 5]: 0.5 µg/mL (≈ 0.709 µM) | MIC [1, 6]: 0.44 µg/mL (≈ 0.624 µM) | MIC [1, 7]: 0.46 µg/mL (≈ 0.652 µM) | MIC [1, 8]: 0.71 µg/mL (≈ 1.01 µM) | MIC [1, 9]: 0.96 µg/mL (≈ 1.36 µM) | MIC [1, 10]: 0.56 µg/mL (≈ 0.794 µM) | MIC [1, 11]: 0.58 µg/mL (≈ 0.822 µM) | MIC [1, 12]: 0.79 µg/mL (≈ 1.12 µM) | MIC [1, 13]: 1.08 µg/mL (≈ 1.53 µM) | MIC [1, 14]: 0.445 µg/mL (≈ 0.631 µM) | MIC [1, 15]: 0.52 µg/mL (≈ 0.737 µM) | MIC ([1]; T. tonsurans 10, read-out: MIC GM): 0.445 µg/mL (≈ 0.631 µM) | MIC [1, 16]: 0.5 µg/mL (≈ 0.709 µM) | MIC [1, 17]: 0.196 µg/mL (≈ 0.278 µM) | MIC [1, 18]: 0.27 µg/mL (≈ 0.383 µM) | MIC [1, 19]: 0.21 µg/mL (≈ 0.298 µM) | MIC Range, M. canis (M. canis; 100% growth inhibition, 28° C.): 0.125 to 2.0 µg/mL | MIC (M. canis; [20]): 0.42 µg/mL (≈ 0.595 µM) | MIC (M. canis; [21]): 0.63 µg/mL (≈ 0.893 µM) | MIC (M. canis; Table 9, read-out: MIC M. canis): 0.6 µg/mL (≈ 0.85 µM) | MIC Range, M. gypseum (M. gypseum; 100% growth inhibition, 28° C.): 0.25 to 2.0 µg/mL | MIC (M. gypseum; [22]): 0.74 µg/mL (≈ 1.05 µM) | MIC (M. gypseum; [23]): 0.93 µg/mL (≈ 1.32 µM) | MIC (M. gypseum; Table 9, read-out: MIC M. gypseum): 0.9 µg/mL (≈ 1.28 µM) | MIC Range, T. mentagrophyte (T. mentagrophytes): 0.06 to 1.0 µg/mL | MIC (T. mentagrophytes; [24]): 0.26 µg/mL (≈ 0.368 µM) | MIC (T. mentagrophytes; [25]): 0.355 µg/mL (≈ 0.503 µM) | MIC Range, T. rubrum (T. rubrum; 100% growth inhibition, 28° C.): 0.03 to 1.0 µg/mL | MIC (T. rubrum; [26]): 0.171 µg/mL (≈ 0.242 µM) | MIC (T. rubrum; [27]): 0.276 µg/mL (≈ 0.391 µM) | MIC (T. rubrum; Table 9, read-out: MIC T. rubrum): 0.3 µg/mL (≈ 0.425 µM) | MIC Range, T. tonsurans (T. tonsurans; 100% growth inhibition, 28° C.): 0.25 to 2.0 µg/mL | MIC (T. tonsurans; [28]): 0.84 µg/mL (≈ 1.19 µM) | MIC (T. tonsurans; [29]): 1.06 µg/mL (≈ 1.5 µM) | MIC (T. tonsurans; Table 9, read-out: MIC T. tonsurans): 1.1 µg/mL (≈ 1.56 µM)

CN(C/C=C/C#CC(C)(C)C)Cc1cccc2ccccc12 [Terbinafine]
MIC Range ([1]; T. tonsurans 1): 0.015 to 0.06 µg/mL | MIC Range ([1]; T. tonsurans 2): 0.015 to 0.06 µg/mL | MIC Range ([1]; T. tonsurans 4): 0.015 to 0.06 µg/mL | MIC Range ([1]; T. tonsurans 5): 0.03 to 0.06 µg/mL | MIC Range ([1]; T. tonsurans 6): 0.03 to 0.125 µg/mL | MIC Range ([1]; T. tonsurans 7): 0.015 to 0.06 µg/mL | MIC Range ([1]; T. tonsurans 8): 0.06 to 0.125 µg/mL | MIC Range ([1]; T. tonsurans 9): 0.06 to 0.125 µg/mL | MIC Range ([1]; T. tonsurans 10): 0.015 to 0.06 µg/mL | MIC Range ([1]; T.tonsurans 3): 0.015 to 0.125 µg/mL | MIC [1, 2]: 0.034 µg/mL (≈ 0.117 µM) | MIC [1, 3]: 0.036 µg/mL (≈ 0.124 µM) | MIC [1, 4]: 0.041 µg/mL (≈ 0.141 µM) | MIC [1, 5]: 0.0275 µg/mL (≈ 0.0944 µM) | MIC [1, 6]: 0.048 µg/mL (≈ 0.165 µM) | MIC [1, 7]: 0.05 µg/mL (≈ 0.172 µM) | MIC [1, 8]: 0.061 µg/mL (≈ 0.209 µM) | MIC [1, 9]: 0.071 µg/mL (≈ 0.244 µM) | MIC [1, 10]: 0.038 µg/mL (≈ 0.13 µM) | MIC [1, 11]: 0.045 µg/mL (≈ 0.154 µM) | MIC [1, 12]: 0.068 µg/mL (≈ 0.233 µM) | MIC [1, 13]: 0.07 µg/mL (≈ 0.24 µM) | MIC [1, 14]: 0.077 µg/mL (≈ 0.264 µM) | MIC [1, 15]: 0.081 µg/mL (≈ 0.278 µM) | MIC [1, 16]: 0.035 µg/mL (≈ 0.12 µM) | MIC [1, 17]: 0.038 µg/mL (≈ 0.13 µM) | MIC [1, 18]: 0.051 µg/mL (≈ 0.175 µM) | MIC [1, 19]: 0.037 µg/mL (≈ 0.127 µM) | MIC Range, M. canis (M. canis; 100% growth inhibition, 28° C.): 0.03 µg/mL (≈ 0.103 µM) | MIC (M. canis; [20]): 0.03 µg/mL (≈ 0.103 µM) | MIC (M. canis; [21]): 0.03 µg/mL (≈ 0.103 µM) | MIC Range, M. gypseum (M. gypseum; 100% growth inhibition, 28° C.): 0.015 to 0.25 µg/mL | MIC (M. gypseum; [22]): 0.077 µg/mL (≈ 0.264 µM) | MIC (M. gypseum; [23]): 0.122 µg/mL (≈ 0.419 µM) | MIC Range, T. mentagrophyte (T. mentagrophytes): 0.03 to 0.06 µg/mL | MIC (T. mentagrophytes; [24]): 0.034 µg/mL (≈ 0.117 µM) | MIC (T. mentagrophytes; [25]): 0.035 µg/mL (≈ 0.12 µM) | MIC Range, T. rubrum (T. rubrum; 100% growth inhibition, 28° C.): 0.007 to 0.06 µg/mL | MIC (T. rubrum; [26]): 0.026 µg/mL (≈ 0.0892 µM) | MIC (T. rubrum; [27]): 0.032 µg/mL (≈ 0.11 µM) | MIC Range, T. tonsurans (T. tonsurans; 100% growth inhibition, 28° C.): 0.015 to 0.06 µg/mL | MIC (T. tonsurans; [28]): 0.024 µg/mL (≈ 0.0824 µM) | MIC (T. tonsurans; [29]): 0.03 µg/mL (≈ 0.103 µM)

Reference: patent US7947854B2, “Bis-cationic compounds and use thereof” (The University of Sydney, priority 2003, dated 2011)
